pIC50: −log10 of the molar value.

Test [1] has as its target T1, Autophosphorylated AurA kinase (Homo sapiens, UniProt O14965).
T1 construct: made in house; host or cells: Sf9 insect cells
T1 sequence (O14965 1-403): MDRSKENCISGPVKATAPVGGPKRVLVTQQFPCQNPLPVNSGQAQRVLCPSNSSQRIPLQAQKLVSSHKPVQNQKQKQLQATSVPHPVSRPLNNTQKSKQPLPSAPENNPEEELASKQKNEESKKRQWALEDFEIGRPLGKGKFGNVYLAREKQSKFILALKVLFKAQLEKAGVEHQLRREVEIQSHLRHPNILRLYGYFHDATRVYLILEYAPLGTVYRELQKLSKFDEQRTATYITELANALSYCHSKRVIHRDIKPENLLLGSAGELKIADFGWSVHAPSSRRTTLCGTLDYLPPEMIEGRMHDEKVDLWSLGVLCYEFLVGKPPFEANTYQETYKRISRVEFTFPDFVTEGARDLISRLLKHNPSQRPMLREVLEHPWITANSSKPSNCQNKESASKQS
Put plainly: AurA Luminescence-Based ATP Depletion Enzyme Assay. Format: biochemical. Particulars: 10 μM ATP. How it is done:
AurA Luminescence-Based ATP Depletion Enzyme Assay
Materials: Kemptide peptide substrate=LRRASLG (Biopeptide, San Diego, Calif.), ATP (Sigma Cat#A-3377, FW=551), HEPES buffer, pH 7.5, 10% Brij 35 (Calbiochem Cat#203728), MgCl2, Staurosporine (Streptomyces sp. Sigma Cat#85660-1MG), white Costar 384-well flat-bottom plate (VWR Cat#29444-088), Autophosphorylated AurA kinase (see below), Kinase-Glo™ (Promega Cat#V6712).
Stock Solutions: 10 mM Kemptide peptide (7.72 mg/ml in water), stored at −20° C.; 100 mM HEPES buffer+0.015% Brij 35, pH 7.5 (5 ml 1M HEPES stock+75 μL 10% Brij 35+45 ml miliQH2O); 10 mM ATP (5.51 mg/ml in dH2O) stored at −20° C. (diluted 50 μl into total of 10 ml miliQH2O daily=50 μM ATP working stock); 100 mM MgCl2; 200 μM Staurosporine, 2× Kinase-Glo™ reagent (made fresh or stored at −20° C.).
AurA Autophosphorylation Reaction: ATP and MgCl2 were added to 1-5 mg/ml AurA at final concentrations of 10 mM and 100 mM, respectively. The autophosphorylation reaction was incubated at 21° C. for 2-3 h. The reaction was stopped by the addition of EDTA to a final concentration of 50 mM, and samples were flash frozen with liquid N2 and stored at −80° C.
Standard Assay Setup for 384-well format (20 μl kinase reaction, 40 μl detection reaction): 10 mM MgCl2; 0.2 mM Kemptide peptide; 1 μl test compound (in DMSO); 0.3 μg/ml Autophosphorylated AurA kinase; 10 μM ATP; 100 mM HEPES+0.015% Brij buffer. Positive controls contained DMSO with no test compound. Negative controls contained 5 μM staurosporine. The kinase reactions were initiated at time t=0 by the addition of ATP. Kinase reactions were incubated at 21° C. for 45 min, then 20 μl of Kinase-Glo™ reagent were added to each well to quench the kinase reaction and initiate the luminescence reaction. After a 20 min incubation at 21° C., the luminescence was detected in a plate-reading luminometer.
The Sf9 insect cell pellets (˜18 g) produced from 6 L of cultured cells expressing human Aurora-2 were resuspended in 50 mM Na Phosphate pH 8.0, 500 mM NaCl, 10% glycerol, 0.2% n-octyl-β-D-glucopyranoside (BOG) and 3 mM β-Mercaptoethanol (BME). One tablet of Roche Complete, EDTA-free protease inhibitor cocktail (Cat#1873580) and 85 units Benzonase (Novagen Cat#70746-3)) were added per 1 L of original culture. Pellets were resuspended in approximately 50 ml per 1 L of original culture and were then sonicated on ice with two 30-45 sec bursts (100% duty cycle). Debris was removed by centrifugation and the supernatant was passed through a 0.8 μm syringe filter before being loaded onto a 5 ml Ni^2+ HiTrap column (Pharmacia). The column was washed with 6 column volumes of 50 mM Na Phosphate pH 8.0, 500 mM NaCl, 10% glycerol, 3 mM BME. The protein was eluted using a linear gradient of the same buffer containing 500 mM Imidazole. The eluant (24 ml) was cleaved overnight at 4° C. in a buffer containing 50 mM Na Phosphate pH 8.0, 500 mM NaCl, 10% glycerol, 3 mM BME and 10,000 units of TEV (Invitrogen Cat#10127-017). The protein was passed over a second nickel affinity column as described above; the flow-through was collected. The cleaved protein fractions were combined and concentrated using spin concentrators. Further purification was done by gel filtration chromatography on a S75 sizing column in 50 mM Na Phosphate (pH 8.0), 250 mM NaCl, 1 mM EDTA, 0.1 mM AMP-PNP or ATP buffer, and 5 mM DTT. The cleanest fractions were combined and concentrated to approximately 8-11 mg/ml, and were either flash frozen in liquid nitrogen in 120 μl aliquots and stored at −80° C., or stored at 4° C.

The test system of test [2] is HCT116 cells. Description: 96-well XTT cell survival assay (AurA XTT). It is filed as cell-based. Conditions: Homo sapiens, HCT-116, 72 hours. The method, then:
HCT116 cells were maintained in McCoy's 5a Medium supplemented with 10% fetal bovine serum (FBS) 2 mM L-Glutamine and 100 units penicillin/100 μg streptomycin, at 37° C. in 5% CO2
Compounds were tested in the following assays in duplicate.
96-well XTT assay: Cells were grown in growth media containing various concentrations of compounds (duplicates) on a 96-well flat bottom plate for 72 hours at 37° C. in 5% CO2. The starting cell number was 5000 cells per well and volume was 120 μl. At the end of the 72-hour incubation, 40 μl of XTT labeling mixture (50:1 solution of sodium 3′-[1-(phenylaminocarbonyl)-3,4-tetrazolium]-bis(4-methoxy-6-nitro) benzene sulfonic acid hydrate and Electron-coupling reagent: PMS (N-methyl dibenzopyrazine methyl sulfate) were added to each well of the plate. After an additional 2-6 hours […] with a spectrophotometer.
On the technique in general: Tetrazolium dyes change colour on reduction, which living cells bring about.

With `CCN(CCC#N)C(=O)c1ccc(-c2ccnc(Nc3ccncc3)n2)s1`, the pIC50 (usually the IC50 on a negative log10 scale, so that one unit is a factor of ten) was less than 6.30 in test [1] and 5.30 to 6.00 in test [2].
Regarding `CC(O)c1cccc(Nc2nccc(-c3ccc(CNC(=O)c4ccccc4)s3)n2)c1` (stereo not shown), the pIC50 in test [1] is 6.30 to 7.00.
Same read-out and setting: in the case of `O=S(=O)(Nc1ncc[nH]1)c1ccc(Nc2nccc(-c3ccc(S(=O)(=O)N4CCCCC4)s3)n2)cc1` it was more than 7.00; in that of `NC(=O)c1cccc(Nc2nccc(-c3ccc(Br)s3)n2)c1`, 6.30 to 7.00; in that of `CC(O)c1cccc(Nc2nccc(-c3cc(C(=O)NCc4ccccc4)cs3)n2)c1` (stereo not shown), more than 7.00.
The same measure, in the same setting: under `Cc1noc(C)c1-c1ccc(-c2ccnc(Nc3cccc(C(C)O)c3)n2)s1` (stereo not shown) stands 6.30 to 7.00.

The record behind these values is US7977481B2, “Pyrimidinyl-thiophene kinase modulators” (SGX Pharmaceuticals, Inc., priority 2005, dated 2011).
